These results are taken from patent US12410164B2, “Heterocyclic compounds and medical use thereof” (FONDAZIONE TELETHON, priority 2018, dated 2025).

For the first assay, the target named is F508del-CFTR (Homo sapiens, UniProt P13569, DEL508-508). Briefly: HS-YFP kinetic fluorescence (iodide quenching rate) assay in CFBE41o− cells. On the set-up: expressed in transfected cells; host or cells: CFBE41o- cells with expression of F508del-CFTR and HS-YFP (generated as in Sondo et al. 2011). The class given is cell-based. The settings on record: Table 1; compound at 10 μM plus VX-809; (QRTOT − QRVX)/QRVX, HS-YFP assay. Here is the method: CFBE41o- cells, with expression of F508del-CFTR and halogen-sensitive fluorescent protein, were generated as previously described (Sondo E, et al. Am J Physiol. 2011, 301, […]-[…]). For the test, the cells were seeded in 96-well microplates using a culture medium consisting of DMEM and Ham's F12 (1:1) supplemented with 10% foetal bovine serum. After 24 hours from seeding, the cells were treated for another 24 hours with the test compounds dissolved in the culture medium at the desired concentrations. As a negative control, the solvent of the compounds (dimethyl sulfoxide, DMSO) dissolved in the medium with the same dilution ratio (final percentage of DMSO:0.1-0.2%) was used. As a positive control, the corrector VX-809 (Selleck Chemicals, […]) was used at a concentration of 1 μM. After treatment, the medium with the compounds was removed and the cells were stimulated with forskolin (Sigma-Aldrich, F6886) 20 μM plus genistein (Sigma-Aldrich, G6649) 50 μM (in 60 μl of PBS saline) to maximally activate the CFTR channels present in the membrane. In a microplate reader (FLUOstar-Omega, BMG) the fluorescence of the cells in each well was read for 14 seconds, with an injection of 165 μl of a iodide-enriched saline (modified PBS where NaCl, 137 mM, has been replaced with the same concentration of NaI). The iodide transport activity in each well was evaluated by subtraction of the background fluorescence (measured in a well without cells), subsequent normalization with respect to the initial fluorescence and finally by interpolation of the fluorescence quenching phase with an exponential function that allows the derivation of the maximum slope (quenching rate, QR). The activity of the synthesized compounds was initially evaluated on the CFBE41o- cell line with expression of the mutated F508del-CFTR protein described above (Sondo E, et al. Am J Physiol. 2011, 301, […]-[…]). For this purpose, a functional assay based on the fluorescent YFP protein sensitive to halides, HS-YFP, was used (Galietta L J, et al. J Biol Chem. 2001, 276, 19723-19728). The fluorescence of the HS-YFP protein is turned off by iodide. Therefore, if exposed to a solution containing iodide, cells with HS-YFP expression show a quenching speed of the fluorescence which depends on the presence and activity of anionic channels. Under control conditions, the mutated CFTR protein presents a serious defect of stability and maturation, so it remains trapped in the endoplasmic reticulum not reaching the cell surface in enough quantity. In the HS-YFP-based assay, this defect results in a low anion transport capacity and therefore in a low quenching rate (QR). Treatment for a prolonged time (e.g. 24 hours) with a corrector determines an improvement in protein maturation with an increase in the number of CFTR channels present in the membrane and therefore an increase in the flux of iodide and QR. In a first phase, the authors screened about 200 heterocyclic molecules with various nitrogenated tricyclic scaffolds. Conditions previously described have been used for screening (Sondo E, et al. Am J Physiol. 2011, 301, […]-[…]) and reported herein in the Materials and Methods section. A threshold equal to the average value plus three times the standard deviation of the QR of wells without compounds (only DMSO in the culture medium) was used as a criterion for the selection of active compounds.
Sequence of F508del-CFTR (P13569 with tags, fused parts or gaps DEL508-508): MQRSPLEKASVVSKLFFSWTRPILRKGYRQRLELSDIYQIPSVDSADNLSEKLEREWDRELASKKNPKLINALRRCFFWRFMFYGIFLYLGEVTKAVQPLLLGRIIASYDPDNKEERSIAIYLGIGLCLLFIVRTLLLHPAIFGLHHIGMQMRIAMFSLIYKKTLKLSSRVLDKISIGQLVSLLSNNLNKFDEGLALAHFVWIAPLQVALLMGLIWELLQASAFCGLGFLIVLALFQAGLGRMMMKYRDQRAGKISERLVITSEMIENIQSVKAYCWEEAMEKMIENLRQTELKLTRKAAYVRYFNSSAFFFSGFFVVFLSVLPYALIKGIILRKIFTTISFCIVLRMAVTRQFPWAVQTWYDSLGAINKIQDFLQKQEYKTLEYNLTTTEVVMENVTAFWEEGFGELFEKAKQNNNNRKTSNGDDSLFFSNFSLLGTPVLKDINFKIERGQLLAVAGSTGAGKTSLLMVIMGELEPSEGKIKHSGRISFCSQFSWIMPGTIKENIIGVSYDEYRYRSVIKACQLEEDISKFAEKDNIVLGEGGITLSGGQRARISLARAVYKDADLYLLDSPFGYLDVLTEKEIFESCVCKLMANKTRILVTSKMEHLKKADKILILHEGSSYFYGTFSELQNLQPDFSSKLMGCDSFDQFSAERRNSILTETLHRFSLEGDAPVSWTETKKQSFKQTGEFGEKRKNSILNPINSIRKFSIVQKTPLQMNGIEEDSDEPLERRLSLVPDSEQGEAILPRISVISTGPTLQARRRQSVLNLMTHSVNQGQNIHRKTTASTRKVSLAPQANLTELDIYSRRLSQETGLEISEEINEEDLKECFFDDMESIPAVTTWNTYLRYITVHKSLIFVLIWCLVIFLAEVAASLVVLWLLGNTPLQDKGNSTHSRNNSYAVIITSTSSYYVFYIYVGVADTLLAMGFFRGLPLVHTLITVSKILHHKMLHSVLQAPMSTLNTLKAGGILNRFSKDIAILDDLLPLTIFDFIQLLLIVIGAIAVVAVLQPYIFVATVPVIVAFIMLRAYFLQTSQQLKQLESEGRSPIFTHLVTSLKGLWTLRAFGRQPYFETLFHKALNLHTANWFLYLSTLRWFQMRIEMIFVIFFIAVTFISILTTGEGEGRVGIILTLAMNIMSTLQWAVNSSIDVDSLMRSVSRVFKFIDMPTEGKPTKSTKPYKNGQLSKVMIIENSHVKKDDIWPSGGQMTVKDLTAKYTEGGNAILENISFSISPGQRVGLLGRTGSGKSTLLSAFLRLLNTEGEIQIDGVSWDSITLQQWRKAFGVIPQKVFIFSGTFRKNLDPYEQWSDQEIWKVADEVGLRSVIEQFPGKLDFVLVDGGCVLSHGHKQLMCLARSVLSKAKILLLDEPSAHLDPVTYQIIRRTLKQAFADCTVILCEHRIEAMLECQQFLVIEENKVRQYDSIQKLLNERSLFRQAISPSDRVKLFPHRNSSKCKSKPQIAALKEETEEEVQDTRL
`CCOC(=O)c1c(Br)c2c(n1Cc1ccc(C(F)(F)F)cc1)-c1[nH]c(=O)c(S(=O)(=O)c3ccccc3)cc1CC2` [PP071, Ethyl 7-(benzenesulfonyl)-3-bromo-8-oxo-1-{[4-(trifluoromethyl)phenyl]methyl}-4,5,8,9-tetrahydro-1H-pyrrolo[3,2-h]quinoline-2-carboxylate]: the “AI (%) additivity index” value turned out to be 35%.
Consider `CC(C)OC(=O)c1cc2c(n1CC1CC1)-c1[nH]c(=O)c(S(=O)(=O)c3ccccc3)cc1CC2` [PP105, Propan-2-yl 7-(benzenesulfonyl)-1-(cyclopropylmethyl)-8-oxo-4,5,8,9-tetrahydro-1H-pyrrolo[3,2-h]quinoline-2-carboxylate], for which the “AI (%) additivity index” value is given as 174%.
Same read-out and setting: with `CCOC(=O)c1cc2c(n1Cc1ccc(C)nc1)-c1[nH]c(=O)c(S(=O)(=O)c3ccccc3)cc1CC2` [PP066, Ethyl 7-(benzenesulfonyl)-1-[(6-methylpyridin-3-yl)methyl]-8-oxo-4,5,8,9-tetrahydro-1H-pyrrolo[3,2-h]quinoline-2-carboxylate] the figure was 62%; with `CCOC(=O)c1c(Br)c2c(n1Cc1ccc(Cl)cc1)-c1[nH]c(=O)c(S(=O)(=O)c3ccccc3)cc1CC2` [PP029, Ethyl 3-bromo 1-(4-chlorobenzyl)-8-oxo-7-(phenylsulfonyl)-4,5,8,9-tetrahydro-1H-pyrrolo[3,2-h]quinoline-2-carboxylate], 46%.
Same read-out and setting: with `CCOC(=O)c1c(I)c2c(n1Cc1ccc(C)cc1)-c1[nH]c(=O)c(S(=O)(=O)c3ccccc3)cc1CC2` [PP077, Ethyl 7-(benzenesulfonyl)-3-iodo-1-[(4-methylphenyl)methyl]-8-oxo-4,5,8,9-tetrahydro-1H-pyrrolo[3,2-h]quinoline-2-carboxylate] the figure was 202%; with `O=C(NC1CC1)c1cc2c(n1Cc1ccc(Br)cc1)-c1[nH]c(=O)c(S(=O)(=O)c3ccccc3)cc1CC2` [PP098, 7-(Benzenesulfonyl)-1-[(4-bromophenyl)methyl]-N-cyclopropyl-8-oxo-4,5,8,9-tetrahydro-1H-pyrrolo[3,2-h]quinoline-2-carboxamide], 4%; with `CCOC(=O)c1c(Br)c2c(n1Cc1ccc(F)cc1)-c1[nH]c(=O)c(S(=O)(=O)c3ccccc3)cc1CC2` [PP073, Ethyl 7-(benzenesulfonyl)-3-bromo-1-[(4-fluorophenyl)methyl]-8-oxo-4,5,8,9-tetrahydro-1H-pyrrolo[3,2-h]quinoline-2-carboxylate], 442%.
As for `CCOC(=O)c1c(Br)c2c(n1Cc1ccc(C)cc1C)-c1[nH]c(=O)c(S(=O)(=O)c3ccccc3)cc1CC2` [PP033, Ethyl 7-(benzenesulfonyl)-3-bromo-1-[(2,4-dimethylphenyl)methyl]-8-oxo-4,5,8,9-tetrahydro-1H-pyrrolo[3,2-h]quinoline-2-carboxylate], the “AI (%) additivity index” value came to 114%.
Still for that read-out and setting: with `Cc1cccc(Cn2c(C(=O)NC(C)C)cc3c2-c2[nH]c(=O)c(S(=O)(=O)c4ccccc4)cc2CC3)c1` [PP083, 7-(Benzenesulfonyl)-1-[(3-methylphenyl)methyl]-8-oxo-N-(propan-2-yl)-4,5,8,9-tetrahydro-1H-pyrrolo[3,2-h]quinoline-2-carboxamide] the figure was 53%.
As to `Cc1ccc(Cn2c(C(=O)O)c(Br)c3c2-c2[nH]c(=O)c(S(=O)(=O)c4ccccc4)cc2CC3)cc1C` [PP095, 7-(Benzenesulfonyl)-3-bromo-1-[(3,4-dimethylphenyl)methyl]-8-oxo-4,5,8,9-tetrahydro-1H-pyrrolo[3,2-h]quinoline-2-carboxylic acid], the “AI (%) additivity index” value is on record as 11%.
The same measure, in the same setting: the same measure for `CC(C)NC(=O)c1cc2c(n1Cc1ccc(Br)cc1)-c1[nH]c(=O)c(S(=O)(=O)c3ccccc3)cc1CC2` [PP096, 7-(Benzenesulfonyl)-1-[(4-bromophenyl)methyl]-8-oxo-N-(propan-2-yl)-4,5,8,9-tetrahydro-1H-pyrrolo[3,2-h]quinoline-2-carboxamide]: 3%.
The same measure, in the same setting: the same measure for `CC(C)OC(=O)c1cc2c(n1Cc1ccc(F)cc1)-c1[nH]c(=O)c(S(=O)(=O)c3ccccc3)cc1CC2` [PP107, Propan-2-yl 7-(benzenesulfonyl)-1-[(4-fluorophenyl)methyl]-8-oxo-4,5,8,9-tetrahydro-1H-pyrrolo[3,2-h]quinoline-2-carboxylate]: 335%; for `Cc1ccc(Cn2c(C(=O)O)cc3c2-c2[nH]c(=O)c(S(=O)(=O)c4ccccc4)cc2CC3)cc1C` [PP094, 7-(Benzenesulfonyl)-1-[(3,4-dimethylphenyl)methyl]-8-oxo-4,5,8,9-tetrahydro-1H-pyrrolo[3,2-h]quinoline-2-carboxylic acid]: 47%; for `CCOC(=O)c1c(Br)c2c(n1Cc1ccc(I)cc1)-c1[nH]c(=O)c(S(=O)(=O)c3ccccc3)cc1CC2` [PP063, Ethyl 7-(benzenesulfonyl)-3-bromo-1-[(4-iodophenyl)methyl]-8-oxo-4,5,8,9-tetrahydro-1H-pyrrolo[3,2-h]quinoline-2-carboxylate]: 146%.
With `Cc1cccc(Cn2c(C(=O)NS(=O)(=O)c3ccccc3)c(Br)c3c2-c2[nH]c(=O)c(S(=O)(=O)c4ccccc4)cc2CC3)c1` [PP100, N,7-di(benzenesulfonyl)-3-bromo-1-[(3-methylphenyl)methyl]-8-oxo-4,5,8,9-tetrahydro-1H-pyrrolo[3,2-h]quinoline-2-carboxamide], the “AI (%) additivity index” value is on record as 47%.
Still for that read-out and setting: with `COC(=O)c1cc2c(n1Cc1ccccc1C)-c1[nH]c(=O)c(S(=O)(=O)c3ccccc3)cc1CC2` [PP020, Methyl 1-(2-methylbenzyl)-8-oxo-7-(phenylsulfonyl)-4,5,8,9-tetrahydro-1H-pyrrolo[3,2-h]quinoline-2-carboxylate] the figure was 33%; with `CCOC(=O)c1c(Br)c2c(n1Cc1ccccc1C)-c1[nH]c(=O)c(S(=O)(=O)c3ccccc3)cc1CC2` [PP027, Ethyl 3-bromo 1-(2-methylbenzyl)-8-oxo-7-(phenylsulfonyl)-4,5,8,9-tetrahydro-1H-pyrrolo[3,2-h]quinoline-2-carboxylate], 185%.

Still in this assay, the particulars now being: Table 3; compound at 10 μM plus VX-809; (QRTOT-QRVX)/QRVX.
In the case of `CCOC(=O)c1cc2c(n1Cc1ccc(Br)cc1)-c1nc(NS(=O)(=O)c3ccccc3)ncc1CC2` [SVQ15, Ethyl 2-[(benzenesulfonyl)amino]-9-[(4-bromophenyl)methyl]-6,9-dihydro-5H-pyrrolo[3,2-h]quinazoline-8-carboxylate], the AI additivity index stood at 100%.

The assay is the same for the next values; noted with them: Table 4; compound at 10 μM plus VX-809; (QRTOT − QRVX)/QRVX.
Take `CC(C)OC(=O)c1c(Br)cc2n1CCc1cc(S(=O)(=O)c3ccccc3)c(=O)[nH]c1-2` [QZN10, Propan-2-yl 3-(benzenesulfonyl)-9-bromo-2-oxo-1,2,5,6-tetrahydropyrrolo[1,2-h][1,7]naphthyridine-8-carboxylate]: the “AI (%) additivity index” value amounted to 101%.
In the case of `CC(C)OC(=O)c1c(Br)cc2n1CCCc1cc(S(=O)(=O)c3ccccc3)c(=O)[nH]c1-2` [QZN14, Propan-2-yl 3-(benzenesulfonyl)-10-bromo-2-oxo-1,5,6,7-tetrahydro-2H-pyrido[2,3-c]pyrrolo[1,2-a]azepine-9-carboxylate], the “AI (%) additivity index” value was 141%.

Still in this assay, the particulars now being: Table 5; compound at 10 μM plus VX-809; (QRTOT-QRVX)/QRVX.
For `CC(=O)Nc1ncc2c(n1)-c1ccc(C(=O)OC(C)C)n1CCC2` [QZQ26, Propan-2-yl 2-acetamido-6,7-dihydro-5H-pyrimido[4,5-c]pyrrolo[1,2-a]azepine-9-carboxylate], the “AI (%) additivity index” value worked out at 2%.

Staying with this assay, now noted: relative to the analogue.
With `CCOC(=O)c1c(Br)c2c(n1Cc1ccc(C)cc1C)-c1[nH]c(=O)c(S(=O)(=O)c3ccccc3)cc1CC2` [PP033, Ethyl 7-(benzenesulfonyl)-3-bromo-1-[(2,4-dimethylphenyl)methyl]-8-oxo-4,5,8,9-tetrahydro-1H-pyrrolo[3,2-h]quinoline-2-carboxylate], the “structure-activity comparison of corrector potency/activity” value is recorded as “reduction in activity compared to PP008”.
The same measure, in the same setting: with `CCOC(=O)c1c(Br)c2c(n1Cc1ccccc1C)-c1[nH]c(=O)c(S(=O)(=O)c3ccccc3)cc1CC2` [PP027, Ethyl 3-bromo 1-(2-methylbenzyl)-8-oxo-7-(phenylsulfonyl)-4,5,8,9-tetrahydro-1H-pyrrolo[3,2-h]quinoline-2-carboxylate] the entry was “potency comparable to that of PP008”.
